{"source": "patent US20070134261A1", "about": "“Effectors of innate immunity” (priority 2001, published 2007)", "key": {"[1]": {"tested_on": "THP-1 cells (human monocytes)", "test": "Induction of IL-8 in undifferentiated THP-1 cells", "assay_type": "cell-based", "procedure": "The murine macrophage cell line RAW 264.7, THP-1 cells (human monocytes), a human epithelial cell line (A549), human bronchial epithelial cells (16HBEo14), and whole human blood were used. HBE cells were grown in MEM with Earle's. THP-1 cells were grown and maintained in RPMI 1640 medium. The RAW and A549 cell lines were maintained in DMEM supplemented with 10% fetal calf serum. […] DMEM was aspirated from cells grown overnight and replaced with fresh medium. After incubation of the cells with peptide, the release of chemokines into the culture supernatant was determined by ELISA (R&D Systems, Minneapolis, Minn.)."}, "[2]": {"tested_on": "whole human blood", "assay_type": "cell-based", "conditions": "4 hr (0 μg/ml: 3205)"}}, "note": "Like-named read-outs stand apart in the source and are kept apart here."}
{"smiles": "CC[C@H](C)[C@H](N)C(=O)N[C@@H](CC(C)C)C(=O)N1CCC[C@H]1C(=O)N[C@@H](Cc1c[nH]c2ccccc12)C(=O)N[C@@H](CCCCN)C(=O)N[C@@H](Cc1c[nH]c2ccccc12)C(=O)N1CCC[C@H]1C(=O)N[C@@H](Cc1c[nH]c2ccccc12)C(=O)N[C@@H](Cc1c[nH]c2ccccc12)C(=O)N1CCC[C@H]1C(=O)N[C@@H](Cc1c[nH]c2ccccc12)C(=O)N[C@@H](CCCNC(=N)N)C(=O)N[C@@H](CCCNC(=N)N)C(N)=O", "note": "[SEQ ID NO: 2]", "values": [{"measurement": "induction of IL-8", "setting": "[1]", "result": "significantly induced IL-8"}, {"measurement": "IL-8", "setting": "[2]; 10 μg/ml peptide + E. coli O111:B4 LPS", "result": 1912, "unit": "pg/mL"}, {"measurement": "IL-8", "setting": "[2]; 50 μg/ml peptide + E. coli O111:B4 LPS", "result": 1458, "unit": "pg/mL"}]}
